The text below walks through data of patent US10526337B2, “Heteroaryl derivative or pharmaceutically acceptable salt thereof, preparation method therefor, and pharmaceutical composition for preventing or treating diseases associated with PI3 kinases, containing same as active ingredient” (KOREA RESEARCH INSTITUTE OF CHEMICAL TECHNOLOGY, priority 2015, dated 2020).

The term IC50 denotes the point on the concentration scale where inhibition reaches its midpoint. Lower therefore signals greater potency.

The target of assay [1] is T1, PI3 Kinase (p110δ/p85α) (h) (Homo sapiens, UniProt O00329).
T1 construct: endogenous in cells; host or cells: Raji
Briefly: Inhibition of phosphatidylinositol 3-kinase delta (PI3K δ), pAkt Western blotting in IgM-stimulated Raji cells. The settings on record: ATP=10 uM, sample concentration=100 nM. Type of assay: cell-based. As to the method:
(§1) The stimulated cells were transferred in a 1.5 mL tube, followed by centrifugation at 3000 rpm for 1 minute. 100 μL of RIPA buffer (radioimmunoprecipitation assay buffer, 50 mM Tris-HCl, 5 mM EDTA, 150 mM NaCl, 1% NP-40, 1 mM PMSF, pH 8.0; ELPIS, Korea) was added thereto, which was stored in a 4° C. refrigerator for 12 hours. Centrifugation was performed at 4° C. at 14,000 rpm for 20 minutes. The supernatant was transferred into a new 1.5 mL tube. Protein was quantified by BCA (bicinchoninic acid) method and samples were prepared. The composition of the sample was as follows: sample buffer (ELPIS, EBA-1052) 5×, protein 10 μg, and 1× sample buffer to make the total volume 20 μL. The sample was heated at 100° C. for 5 minutes. The evaporated water vapor was condensed in a refrigerator. The liquid stained on the wall was fallen down by centrifugation for a few seconds. The sample proceeded to 10% SDS (Sodium Dodecyl Sulfate) acrylamide gel for separation. The separated protein was transferred onto PVDF (poly-vinyl difluoride) membrane, followed by reaction with pAkt (phospho protein kinase B) antibody (Ser473 or Thr308; Cell signaling, 9271s or 13038s) for 12 hours at 4° C. The membrane was washed with TBST (Tris-Buffered Saline with Tween 20, 10 mM Tris-HCl, pH 7.5, 150 mM NaCl, 0.1% Tween-20) three times for 5 minutes each, to which the secondary antibody (rabbit antibody, Santacruz, sc-2004) was added, followed by reaction at room temperature for 2 hours. The membrane was washed with TBST three times for 10 minutes each, to which ECL (enhanced chemiluminescence, Thermo, NCI34095KR) was sprayed. Bands were investigated by using LAS-3000.
The inhibition of phosphatidylinositol 3 kinase delta (PI3K δ) by those compounds prepared in Examples 1˜98 was investigated by the following experiment. The inhibition activity of each compound was measured in the following conditions: ATP=10 uM, and sample concentration=100 nM.
(§2) Raji cells cultured in RPMI1640 (Hyclone, SH30027.02) supplemented with 10% fetal bovine serum (Hyclon, USA) were distributed in a 12-well plate at the density of 1,000,000 cells/well. The cells were stabilized in a 37° C. CO2 for 24 hours and then treated with each compound for 1 and half hours. The cells were treated with 0.25 μg/mL of IgM (immunoglobulin M, Southern Biotech, USA) to increase the intracellular activity of PI3K delta. 30 minutes later, the medium was discarded and the cells were washed with cold PBS (phosphate buffered saline, Gibco, 14190-250). PBS was then eliminated completely by using a pipette. Western blotting was performed according to the same manner as described in step 2 of Experimental Example 1 to evaluate the intracellular PI3K delta activity.

The target in a further assay is T2, PI3 Kinase (p120γ) (h) (Homo sapiens, UniProt P48736).
T2 construct: endogenous in cells; host or cells: RAW264.7
Description: Inhibition of phosphatidylinositol 3-kinase gamma (PI3K γ), pAkt Western blotting in C5a-stimulated RAW264.7 macrophages. Type of assay: cell-based, mouse. To be noted: ATP=10 uM, sample concentration=100 nM. As to the method:
as §1
The inhibition of phosphatidylinositol 3 kinase gamma (PI3K γ) by those compounds prepared in Examples 1˜98 was investigated by the following experiment. The inhibition activity of each compound was measured in the following conditions: ATP=10 uM, and sample concentration=100 nM.
as §2, with “Macrophages (RAW264.7)” for “Raji cells”, “DMEM (Dulbecco's Modified Eagle Medium, Hyclon, SH30243.01)” for “RPMI1640 (Hyclone, SH30027.02)”, “10 ng/mL” for “0.25 μg/mL”, “C5a (complement component 5a, 10 μg/mL; R&D, 2150-C5)” for “IgM (immunoglobulin M, Southern Biotech, USA)”, “gamma. 5” for “delta. 30”, “gamma” for “delta”
In general terms: A western blot detects proteins with antibodies after separation by electrophoresis.

T1 sequence (O00329 whole entry): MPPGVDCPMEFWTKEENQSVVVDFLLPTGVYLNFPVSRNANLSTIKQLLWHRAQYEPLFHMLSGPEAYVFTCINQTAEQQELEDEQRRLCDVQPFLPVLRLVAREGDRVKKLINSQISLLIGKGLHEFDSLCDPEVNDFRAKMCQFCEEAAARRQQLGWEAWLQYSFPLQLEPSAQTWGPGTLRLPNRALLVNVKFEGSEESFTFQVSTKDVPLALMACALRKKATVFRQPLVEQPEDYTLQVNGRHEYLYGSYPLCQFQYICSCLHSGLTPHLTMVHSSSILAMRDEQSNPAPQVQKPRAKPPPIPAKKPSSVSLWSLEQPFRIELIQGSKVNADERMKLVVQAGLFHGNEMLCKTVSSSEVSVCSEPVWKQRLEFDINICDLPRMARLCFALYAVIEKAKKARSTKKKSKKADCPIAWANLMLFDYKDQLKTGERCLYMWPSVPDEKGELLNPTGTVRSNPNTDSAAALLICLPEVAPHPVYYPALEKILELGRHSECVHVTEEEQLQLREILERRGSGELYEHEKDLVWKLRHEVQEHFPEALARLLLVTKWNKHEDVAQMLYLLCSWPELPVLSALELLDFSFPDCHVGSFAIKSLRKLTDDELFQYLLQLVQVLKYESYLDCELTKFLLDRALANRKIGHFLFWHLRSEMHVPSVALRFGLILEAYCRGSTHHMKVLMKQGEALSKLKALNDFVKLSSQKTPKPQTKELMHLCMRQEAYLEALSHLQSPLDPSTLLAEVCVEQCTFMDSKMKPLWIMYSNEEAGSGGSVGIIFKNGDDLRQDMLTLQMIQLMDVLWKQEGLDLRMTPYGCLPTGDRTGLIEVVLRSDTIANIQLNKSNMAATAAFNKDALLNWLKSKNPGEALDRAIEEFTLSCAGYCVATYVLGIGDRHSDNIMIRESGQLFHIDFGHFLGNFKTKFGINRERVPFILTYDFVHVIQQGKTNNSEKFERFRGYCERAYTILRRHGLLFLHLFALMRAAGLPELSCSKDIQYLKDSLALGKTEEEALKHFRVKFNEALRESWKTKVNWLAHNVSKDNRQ
T1 sequence (P27986 whole entry partner): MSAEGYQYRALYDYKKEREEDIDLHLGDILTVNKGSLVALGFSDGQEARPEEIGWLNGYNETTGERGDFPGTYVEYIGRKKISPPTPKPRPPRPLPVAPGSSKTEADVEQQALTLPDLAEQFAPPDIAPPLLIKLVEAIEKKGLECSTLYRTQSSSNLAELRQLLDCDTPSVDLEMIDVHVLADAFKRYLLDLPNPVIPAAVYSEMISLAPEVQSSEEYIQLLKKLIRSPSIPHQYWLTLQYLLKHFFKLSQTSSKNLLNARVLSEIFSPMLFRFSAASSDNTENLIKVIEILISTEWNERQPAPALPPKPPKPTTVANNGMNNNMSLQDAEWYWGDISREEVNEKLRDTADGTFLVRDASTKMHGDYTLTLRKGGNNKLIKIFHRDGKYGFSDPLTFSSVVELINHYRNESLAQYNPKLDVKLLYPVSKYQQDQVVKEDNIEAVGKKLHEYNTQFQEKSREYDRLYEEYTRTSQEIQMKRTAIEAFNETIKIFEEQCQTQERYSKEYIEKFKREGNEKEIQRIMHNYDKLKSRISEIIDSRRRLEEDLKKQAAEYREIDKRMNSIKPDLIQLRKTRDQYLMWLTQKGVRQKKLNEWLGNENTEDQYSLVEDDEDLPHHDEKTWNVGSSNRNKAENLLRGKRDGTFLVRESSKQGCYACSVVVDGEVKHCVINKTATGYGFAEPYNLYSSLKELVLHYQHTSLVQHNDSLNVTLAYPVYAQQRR
T2 sequence (P48736 whole entry): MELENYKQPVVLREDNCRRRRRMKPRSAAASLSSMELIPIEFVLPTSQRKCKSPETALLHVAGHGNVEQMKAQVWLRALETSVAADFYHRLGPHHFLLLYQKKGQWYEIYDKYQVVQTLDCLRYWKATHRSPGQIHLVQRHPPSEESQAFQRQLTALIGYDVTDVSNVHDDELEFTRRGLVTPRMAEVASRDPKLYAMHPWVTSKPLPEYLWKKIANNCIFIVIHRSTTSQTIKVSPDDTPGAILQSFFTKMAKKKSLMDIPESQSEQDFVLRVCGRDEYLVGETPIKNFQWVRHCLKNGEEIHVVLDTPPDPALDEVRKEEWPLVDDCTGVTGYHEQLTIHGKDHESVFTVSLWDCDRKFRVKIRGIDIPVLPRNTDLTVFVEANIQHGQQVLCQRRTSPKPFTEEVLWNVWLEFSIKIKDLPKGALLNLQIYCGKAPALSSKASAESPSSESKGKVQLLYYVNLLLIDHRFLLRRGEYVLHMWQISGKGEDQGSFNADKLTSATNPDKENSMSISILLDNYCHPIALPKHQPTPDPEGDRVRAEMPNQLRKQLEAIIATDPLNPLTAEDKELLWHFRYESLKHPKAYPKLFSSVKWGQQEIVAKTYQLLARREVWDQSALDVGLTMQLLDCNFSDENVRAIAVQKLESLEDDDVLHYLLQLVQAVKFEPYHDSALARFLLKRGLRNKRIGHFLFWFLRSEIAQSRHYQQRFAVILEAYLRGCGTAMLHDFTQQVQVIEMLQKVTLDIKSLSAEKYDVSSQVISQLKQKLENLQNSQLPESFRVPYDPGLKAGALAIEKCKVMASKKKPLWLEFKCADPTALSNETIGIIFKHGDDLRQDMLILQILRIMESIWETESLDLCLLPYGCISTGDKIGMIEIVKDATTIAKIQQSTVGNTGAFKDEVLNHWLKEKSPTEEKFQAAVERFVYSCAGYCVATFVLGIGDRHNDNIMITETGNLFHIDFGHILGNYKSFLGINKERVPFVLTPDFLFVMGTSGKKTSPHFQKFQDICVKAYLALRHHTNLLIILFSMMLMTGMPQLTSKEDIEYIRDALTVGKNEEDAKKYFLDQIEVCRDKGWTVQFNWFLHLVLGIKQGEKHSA

With `C[C@H](Nc1ncnc2[nH]ccc(=O)c12)c1nc2ccc(F)cc2c(=O)n1Cc1ccccn1` [Example 32, (S)-4-((1-(6-fluoro-4-oxo-3-(pyridine-2-ylmethyl)-3,4-dihydroquinazoline-2-yl)ethyl)amino)pyrido[2,3-d]pyrimidine-5(8H)-one], in assay [1], the IC50 is greater than 0.5 µM.
For the molecule `C[C@H](Nc1ncnc2c1C(=O)N(C)CN2)c1nc2cccc(Cl)c2c(=O)n1-c1ccccc1` [Example 34, (S)-5-((1-(5-chloro-4-oxo-3-phenyl-3,4-dihydroquinazoline-2-yl)ethyl)amino)-3-methyl-2,3-dihydropyrimido[4,5-d]pyrimidine-4(1H)-one], the IC50 in assay [1] is less than 0.01 µM; against PI3 Kinase (p120γ) (h), 0.01 to 0.5 µM.
Take `C[C@H](Nc1ncnc2c1C(=O)N(C)CN2)c1nc2cccc(Cl)c2c(=O)n1-c1cccnc1` [Example 35, (S)-5-((1-(5-chloro-4-oxo-3-(pyridine-3-yl)-3,4-dihydroquinazoline-2-yl)ethyl)amino)-3-methyl-2,3-dihydropyrimido[4,5-d]pyrimidine-4(1H)-one]: the IC50 (in assay [1]; on PI3 Kinase (p120γ) (h)) was 0.01 to 0.5 µM throughout.
Regarding `C[C@H](Nc1ncnc2c1C(=O)N(C)CN2)c1nc2cccc(Cl)c2c(=O)n1-c1cccc(F)c1` [Example 36, (S)-5-((1-(5-chloro-3-(3-fluorophenyl)-4-oxo-3,4-dihydroquinazoline-2-yl)ethyl)amino)-3-methyl-2,3-dihydropyrimido[4,5-d]pyrimidine-4(1H)-one], the IC50 in assay [1] was less than 0.01 µM; against PI3 Kinase (p120γ) (h), 0.01 to 0.5 µM.
The like results for `Cc1cccc(-n2c([C@H](C)Nc3ncnc4c3C(=O)N(C)CN4)nc3cccc(Cl)c3c2=O)c1` [Example 37, (S)-5-((1-(5-chloro-4-oxo-3-(m-tolyl)-3,4-dihydroquinazoline-2-yl)ethyl)amino)-3-methyl-2,3-dihydropyrimido[4,5-d]pyrimidine-4(1H)-one] were, in that order, less than 0.01 µM and 0.01 to 0.5 µM.
As to `CC(Nc1ncnc2c1C(=O)N(C)CN2)c1cc2ccccc2nc1-c1ccccc1` (centres unmarked) [Example 39, 3-methyl-5-((1-(2-phenylquinoline-3-yl)ethyl)amino)-2,3-dihydropyrimido[4,5-d]pyrimidine-4(1H)-one], the IC50 (in assay [1]; at PI3 Kinase (p120γ) (h)) was 0.01 to 0.5 µM throughout.
Take `C[C@H](Nc1ncnc2c1C(=O)N(C)CN2)c1cc2ccccc2nc1-c1ccccc1` [Example 39-1, (S)-3-methyl-5-((1-(2-phenylquinoline-3-yl)ethyl)amino)-2,3-dihydropyrimido[4,5-d]pyrimidine-4(1H)-one]: the IC50 in assay [1] is 0.01 to 0.5 µM; against PI3 Kinase (p120γ) (h) it was less than 0.01 µM.
With `CC[C@H](Nc1ncnc2c1C(=O)N(C)CN2)c1nc2cccc(F)c2c(=O)n1-c1ccccc1` [Example 41, (S)-5-((1-(5-fluoro-4-oxo-3-phenyl-3,4-dihydroquinazoline-2-yl)propyl)amino)-3-methyl-2,3-dihydropyrimido[4,5-d]pyrimidine-4(1H)-one], the IC50 (in assay [1]; against PI3 Kinase (p120γ) (h)) was 0.01 to 0.5 µM throughout.
Consider `CN1CNc2ncnc(N3CCC[C@H]3c3nc4cccc(Cl)c4c(=O)n3-c3ccccc3)c2C1=O` [Example 42, (S)-5-(2-(5-chloro-4-oxo-3-phenyl-3,4-dihydroquinazoline-2-yl)pyrrolidine-1-yl)-3-methyl-2,3-dihydropyrimido[4,5-d]pyrimidine-4(1H)-one], for which the IC50 (in assay [1]; on PI3 Kinase (p120γ) (h)) was 0.01 to 0.5 µM throughout.
On to `CN1CNc2ncnc(N3CCC[C@H]3c3nc4cccc(Cl)c4c(=O)n3-c3cccnc3)c2C1=O` [Example 43, (S)-5-(2-(5-chloro-4-oxo-3-(pyridine-3-yl)-3,4-dihydroquinazoline-2-yl)pyrrolidine-1-yl)-3-methyl-2,3-dihydropyrimido[4,5-d]pyrimidine-4(1H)-one], for which the IC50 (in assay [1]; on PI3 Kinase (p120γ) (h)) was greater than 0.5 µM in each case.
Consider `CN1CNc2ncnc(N3CCC[C@H]3c3nc4cccc(Cl)c4c(=O)n3-c3cccc(F)c3)c2C1=O` [Example 44, (S)-5-(2-(5-chloro-3-(3-fluorophenyl)-4-oxo-3,4-dihydroquinazoline-2-yl)pyrrolidine-1-yl)-3-methyl-2,3-dihydropyrimido[4,5-d]pyrimidine-4(1H)-one], for which the figures for the IC50 (in assay [1]; against PI3 Kinase (p120γ) (h)) were less than 0.01 µM and 0.01 to 0.5 µM, respectively.
For `Cc1cccc(-n2c([C@@H]3CCCN3c3ncnc4c3C(=O)N(C)CN4)nc3cccc(Cl)c3c2=O)c1` [Example 45, (S)-5-(2-(5-chloro-4-oxo-3-(m-tolyl)-3,4-dihydroquinazoline-2-yl)pyrrolidine-1-yl)-3-methyl-2,3-dihydropyrimido[4,5-d]pyrimidine-4(1H)-one], the IC50 (in assay [1]; on PI3 Kinase (p120γ) (h)) was 0.01 to 0.5 µM throughout.
Turning to `CN1CNc2ncnc(N3CCC[C@H]3c3cc4cccc(Cl)c4c(=O)n3-c3ccccc3)c2C1=O` [Example 46, (S)-5-(2-(8-chloro-1-oxo-2-phenyl-1,2-dihydroisoquinoline-3-yl)pyrrolidine-1-yl)-3-methyl-2,3-dihydropyrimido[4,5-d]pyrimidine-4(1H)-one], the half-inhibitory concentration (IC50) is less than 0.01 µM in assay [1] and 0.01 to 0.5 µM against PI3 Kinase (p120γ) (h).
`CN1CNc2ncnc(N3CCC[C@H]3c3nn4ccc(Cl)c4c(=O)n3-c3ccccc3)c2C1=O` [Example 47, (S)-5-(2-(5-chloro-4-oxo-3-phenyl-3,4-dihydropyrrolo[2,1-f][1,2,4]triazine-2-yl)pyrrolidine-1-yl)-3-methyl-2,3-dihydropyrimido[4,5-d]pyrimidine-4(1H)-one]: the IC50 (in assay [1]; at PI3 Kinase (p120γ) (h)) was 0.01 to 0.5 µM throughout.
In the case of `C[C@H](Nc1nc(N)nc2c1C(=O)N(C)CN2)c1nc2cccc(Cl)c2c(=O)n1-c1ccccc1` [Example 48, (S)-7-amino-5-((1-(5-chloro-4-oxo-3-phenyl-3,4-dihydroquinazoline-2-yl)ethyl)amino)-3-methyl-2,3-dihydropyrimido[4,5-d]pyrimidine-4(1H)-one], the IC50 (in assay [1]; against PI3 Kinase (p120γ) (h)) was less than 0.01 µM in each case.
In the case of `C[C@H](Nc1nc(N)nc2c1C(=O)N(C)CN2)c1nc2cccc(Cl)c2c(=O)n1-c1cccnc1` [Example 49, (S)-7-amino-5-((1-(5-chloro-4-oxo-3-(pyridine-3-yl)-3,4-dihydroquinazoline-2-yl)ethyl)amino)-3-methyl-2,3-dihydropyrimido[4,5-d]pyrimidine-4(1H)-one], the IC50 was less than 0.01 µM in assay [1] and 0.01 to 0.5 µM against PI3 Kinase (p120γ) (h).
Take `C[C@H](Nc1nc(N)nc2c1C(=O)N(C)CN2)c1nc2cccc(Cl)c2c(=O)n1-c1cccc(F)c1` [Example 50, (S)-7-amino-5-((1-(5-chloro-3-(3-fluorophenyl)-4-oxo-3,4-dihydroquinazoline-2-yl)ethyl)amino)-3-methyl-2,3-dihydropyrimido[4,5-d]pyrimidine-4(1H)-one]: the IC50 is less than 0.01 µM in assay [1] and 0.01 to 0.5 µM on PI3 Kinase (p120γ) (h).
The like results for `Cc1cccc(-n2c([C@H](C)Nc3nc(N)nc4c3C(=O)N(C)CN4)nc3cccc(Cl)c3c2=O)c1` [Example 51, (S)-7-amino-5-((1-(5-chloro-4-oxo-3-(m-tolyl)-3,4-dihydroquinazoline-2-yl)ethyl)amino)-3-methyl-2,3-dihydropyrimido[4,5-d]pyrimidine-4(1H)-one] were, in that order, less than 0.01 µM and 0.01 to 0.5 µM.
